The record followed here is patent publication US5424314A, “20,21-dinoreburnamenines” (Roussel-Uclaf, priority 1990, dated 1995).

The subject of series [1] is alpha 2 adrenergic receptors. Put plainly: Affinity for alpha 2 adrenergic receptors (H^3 rauwolscine displacement, cortex homogenate). It is filed as binding, male rate (rat) brain cortices. To be noted: H^3 rauwolscine 0.15 nM, 45 minutes at 25° C., pH 7.4; concentrations inhibiting 50% of specific fixation compared with phentolamine. The procedure: 2 Affinity for Alpha 2 Adrenergic Receptors
10 cortices removed from the brains of male rate weighing on average 150 g were homogenized in 90 ml of 0.32M sucrose. After centrifuging the homogenized mixture at 1,000 g for 10 minutes at 0° C., the supernatant was centrifuged at 30,000 g for 10 minutes at 0° C.+4° C. The deposit was suspended in 240 ml of 50 mM Tris HCl pH 7.7 buffer and centrifuged at 30,000 g for 15 minutes at 0° C.+4° C. The new deposit was suspended in 480 ml of 50 mM NaKPO4 pH 7.4 buffer. Then 2 ml of suspension were incubated for 45 minutes at 25° C. in the presence of H^3 rauwolscine it a concentration of 0.15 nM:
i) on its own, ii) with increasing concentrations of the product under test or, iii) to determine the non-specific fixation, with non-radioactive phentolamine at a concentration of 10^-5 M.
The incubated suspensions were filtered on Whatman GF/C and the filters were washed three times with 5 ml of NaKPO4 pH 7.4 buffer at 0° C. The radioactivity of the filters was measured by liquid scintillation. The affinity of the product tested for the alpha 2 adrenergic receptors was determined relative to phentolamine as reference product.
CD=concentration of phentolamine inhibiting 50% of the specific fixation of H^3 rauwolscine;
CX=concentration of the product tested inhibiting 50% of the specific fixation of H^3 rauwolscine. […]

A further series has as its system mouse. The series can be described thus: Acute toxicity: lethal dose LD0 after oral administration to a mouse. Type of series: in vivo. The procedure: The lethal doses LD0 of the different compounds tested were evaluated after oral administration to a mouse.
Series [2] concerns mice of CD1, Charles River type. Put plainly: Hypobaric anoxia: survival time of mice subjected to a lethal hypoxic atmosphere. It is filed as in vivo. The settings on record: relative to vehicle control animals (70 to 80 seconds); male CD1 mice, depression of 620 mm Hg. From the text: The test consisted of measuring the survival time of mice subjected to a lethal hypoxic atmosphere in which male mice of CD1, Charles River type, weighing 20 to 25 grams, were placed individually in a 2 liter enclosure in which a depression of 620 mm Hg was brought about by means of a vacuum pump, according to the following kinetics: […]
______________________________________
The survival time was the time between the start of the depression (T0) and the last respiratory movement; it was on the order of 70 to 80 seconds on the control animals. The results are given as a percentage of the increase in the survival time relative to the control animals who received the vehicle.

Molecules are shown by their SMILES. Where a name gives a salt, the structure may show the parent alone.

As for `C=Cc1ccc2c3c4n(c2c1)C=CC1CCCN(CC3)C41` (racemic) [Example 1, [16 α(±)]-11-ethenyl-20,21-dinoreburnamenine maleate], the “RBA (relative affinity, relative to phentolamine as reference product)” value in series [1] was found to be 31. The “LD0 (maximum dose which did not cause any mortality in 8 days)” value in the series with mouse is listed as no less than 400. Turning to `CC(O)c1ccc2c3c4n(c2c1)C=CC1CCCN(CC3)C41` (racemic) [Example 5], in series [2], the “% increase of survival time” value was “+21%”. Further, the “LD0 (maximum dose which did not cause any mortality in 8 days)” value in the series with mouse amounted to 100. For `NC(=O)c1ccc2c3c4n(c2c1)C=CC1CCCN(CC3)C41` (racemic) [Example 10, [16α(±)]-20,21-dinoreburnamenine-11-carboxamide], the “% increase of survival time” value in series [2] is “+22%”. On to `CC(=O)c1ccc2c3c4n(c2c1)C=CC1CCCN(CC3)C41` (racemic) [Example 4, [16α(±)]-11-acetyl-20,21-dinoreburnamenine acid maleate], for which, in series [2], the “% increase of survival time” value was “+22%”. Also, the “LD0 (maximum dose which did not cause any mortality in 8 days)” value in the series on mouse was 100.
